# Where two headings read alike, the source gives them in different places. Marks after values point to notes of the source that are not given here.
# Assays:
# [1] = cited from earlier work
# CYP3A4 [2] = settings: in vitro studies; cited from earlier work
# [3] = test system: antiphagocytic protein 1 (APP1); settings: selectivity; cited from earlier work
# human DPP-II = settings: selectivity; cited from earlier work
# [4] = dose range 1.25–60 mg, healthy volunteers; cited from earlier work
# CYP3A4 [5] = settings: in vitro studies; cited from earlier work; remark: listed apart in the source
# CYP2C9 = settings: in vitro studies; cited from earlier work
# CYP2C19 = settings: in vitro studies; cited from earlier work
# [6] = test system: streptozotocin-induced diabetic mice; settings: cited from earlier work
# granzyme B = settings: selectivity; cited from earlier work
# CYP2D6 = settings: in vitro studies; cited from earlier work
# [7] = test system: fibroblast activation protein-alpha (FAPα); settings: selectivity; cited from earlier work
# [8] = Safety and tolerability assessment; type: in vivo, human
# whole blood insulin = assay: Postprandial whole blood insulin in healthy subjects; type: in vivo, human
# high fat diet-fed mice = settings: cited from earlier work
# serum glucose = assay: Postprandial serum glucose in healthy subjects; type: in vivo, human
# human DPP-I = settings: selectivity; cited from earlier work
# prolidase = settings: selectivity; cited from earlier work
# [9] = test system: cytochrome P450 (CYP) 3A4; settings: in vitro studies; cited from earlier work
# db/db mice = settings: young leptin receptor-deficient db/db mice; cited from earlier work
# human DPP-IX = settings: selectivity; cited from earlier work
# CYP1A2 = settings: in vitro studies; cited from earlier work
# active GLP-1 = assay: Postprandial plasma active GLP-1 in healthy subjects; type: in vivo, human
# human DPP-VIII = settings: selectivity; cited from earlier work
# [10] = 5 mg (N=8), judged to be related to the study drug
# [11] = 5 mg once daily for 10 days (N=8)
# [12] = 10 mg (N=8), judged to be related to the study drug
# [13] = 10 mg once daily for 10 days (N=8)
# [14] = 20 mg (N=8), judged to be related to the study drug
# [15] = 20 mg once daily for 10 days (N=8)
# [16] = baseline corrected, day 1, 5 mg
# [17] = baseline corrected, day 1, 10 mg
# [18] = baseline corrected, day 1, 20 mg
# [19] = baseline corrected, day 10, 5 mg
# [20] = baseline corrected, day 10, 10 mg
# [21] = baseline corrected, day 10, 20 mg
# [22] = baseline uncorrected, day 1, 5 mg
# [23] = baseline uncorrected, day 1, 10 mg
# [24] = baseline uncorrected, day 1, 20 mg
# [25] = baseline uncorrected, day 10, 5 mg
# [26] = baseline uncorrected, day 10, 10 mg
# [27] = baseline uncorrected, day 10, 20 mg
smiles,measurement,setting,value
CC#CCn1c(N2CCC[C@@H](N)C2)nc2c1c(=O)n(Cc1nc(C)c3ccccc3n1)c(=O)n2C [linagliptin],terminal elimination half-life,[1],120 h
CC(C)(C)OC[C@@H]1C(=O)NCCN1C(=O)C[C@H](N)Cc1cc(F)c(F)cc1F [Evogliptin],inhibition of CYP3A4,CYP3A4 [2],nor an inhibitor
same,potency for DPP-IV compared to APP1,[3],"more than 20,000 times"
same,potency for DPP-IV compared to human DPP-II,human DPP-II,"more than 20,000 times"
same,dose proportionality of PKs after single dose,[4],dose-proportional PKs
same,tolerability after single dose,[4],good tolerability
same,enzyme mediating metabolism,CYP3A4 [5],primarily mediated by CYP3A4
same,inhibition of CYP2C9,CYP2C9,nor an inhibitor
same,inhibition of CYP2C19,CYP2C19,nor an inhibitor
same,effect on β-cell replication and neogenesis,[6],increased β-cell replication and neogenesis
same,potency for DPP-IV compared to granzyme B,granzyme B,"more than 20,000 times"
same,inhibition of CYP2D6,CYP2D6,nor an inhibitor
same,potency for DPP-IV compared to FAPα,[7],"more than 20,000 times"
same,"Cough, number of cases",[8]; 5 mg (N=8),1
same,"Epigastric discomfort, number of cases",[8]; 5 mg (N=8),1
same,"Eyeball pain, number of cases",[8]; 5 mg (N=8),1
same,"Poor-quality sleep, number of cases",[8]; 5 mg (N=8),1
same,"Rhinorrhea, number of cases",[8]; 5 mg (N=8),1
same,"Sweating, number of cases",[8]; 5 mg (N=8),1
same,"Throat irritation, number of cases",[8]; 5 mg (N=8),1
same,"Vasovagal syncope, number of cases",[8]; 5 mg (N=8),1
same,"Fatigue, number of cases",[8]; [10],1 ^a
same,"Insomnia, number of cases",[8]; [10],1 ^a
same,% of subjects with AEs in a group,[8]; [11],50%
same,"AEs, number of cases",[8]; [11],10
same,"Musculoskeletal discomfort, number of cases",[8]; 10 mg (N=8),1
same,"Pharyngitis, number of cases",[8]; 10 mg (N=8),1
same,"Epigastric discomfort, number of cases",[8]; [12],1 ^a
same,"Sweating, number of cases",[8]; [12],1 ^a
same,% of subjects with AEs in a group,[8]; [13],50%
same,"AEs, number of cases",[8]; [13],5
same,"Joint pain, number of cases",[8]; 20 mg (N=8),1
same,"Prurigo, number of cases",[8]; 20 mg (N=8),1
same,"Headache, number of cases",[8]; [14],1 ^a
same,"Increased urinary frequency, number of cases",[8]; [14],1 ^a
same,% of subjects with AEs in a group,[8]; [15],37.5%
same,"AEs, number of cases",[8]; [15],4
same,Serious AEs,[8]; 5-20 mg once daily for 10 days,No serious AEs were reported
same,Severity of AEs,[8]; 5-20 mg once daily for 10 days,all AEs were mild in severity
same,"AEs, number of cases in subjects administered evogliptin","[8]; all evogliptin dose groups, 5-20 mg for 10 days",19 cases
same,Subjects with AEs among those administered evogliptin,"[8]; all evogliptin dose groups, eleven subjects",45.8%
same,Tolerability of repeated administration,"[8]; healthy subjects, 5–20 mg dose range",well tolerated
same,Average AUEtotal (CV%) Insulin,whole blood insulin; [16],238.3 (15.0) h·μIU/mL
same,Average AUEtotal (CV%) Insulin,whole blood insulin; [17],315.1 (35.7) h·μIU/mL
same,Average AUEtotal (CV%) Insulin,whole blood insulin; [18],223.3 (50.8) h·μIU/mL
same,Average AUEtotal (CV%) Insulin,whole blood insulin; [19],270.9 (36.0) h·μIU/mL
same,Average AUEtotal (CV%) Insulin,whole blood insulin; [20],410.2 (62.6) h·μIU/mL
same,Average AUEtotal (CV%) Insulin,whole blood insulin; [21],301.3 (28.6) h·μIU/mL
same,Average AUEtotal (CV%) Insulin,whole blood insulin; [22],274.9 (14.2) h·μIU/mL
same,Average AUEtotal (CV%) Insulin,whole blood insulin; [23],360.2 (30.6) h·μIU/mL
same,Average AUEtotal (CV%) Insulin,whole blood insulin; [24],264.7 (44.0) h·μIU/mL
same,Average AUEtotal (CV%) Insulin,whole blood insulin; [25],311.3 (32.0) h·μIU/mL
same,Average AUEtotal (CV%) Insulin,whole blood insulin; [26],460.3 (57.2) h·μIU/mL
same,Average AUEtotal (CV%) Insulin,whole blood insulin; [27],349.5 (24.7) h·μIU/mL
same,"interindividual variability (CV%) of AUCτ,ss",5-20 mg,< 20%
same,"interindividual variability (CV%) of Cmax,ss",5-20 mg,< 30%
same,time to attain steady state,"all dosage groups, once daily",≤ 3 days
same,fess (fraction of the administered drug excreted into the urine at the steady state),"day 10, 5 mg once daily, mean ± SD",0.34±0.08
same,fess (fraction of the administered drug excreted into the urine at the steady state),"day 10, 10 mg once daily, mean ± SD",0.27±0.12
same,fess (fraction of the administered drug excreted into the urine at the steady state),"day 10, 20 mg once daily, mean ± SD",0.27±0.04
same,CLss/F,"day 10, steady state, 5 mg once daily, mean ± SD",49.4 ± 9.6 L/h
same,CLss/F,"day 10, steady state, 10 mg once daily, mean ± SD",63.4 ± 10.7 L/h
same,CLss/F,"day 10, steady state, 20 mg once daily, mean ± SD",54.3 ± 8.6 L/h
same,Tmax,"human, in vivo",4 to 5 h
same,AUC(0-t),"human, in vivo, 5 mg",73 ± 15.3 ng·h/mL
same,Cmax,"human, in vivo, 5 mg, Cmax, day 1, 5 mg, mean ± SD",4.9 ± 1.8 ng/mL
same,Cmax,"human, in vivo, 5 mg, Cmax,ss, day 10, steady state, 5 mg once daily, mean ± SD",6.7 ± 1.9 ng/mL
same,half-life,"human, in vivo, 5 mg, t1/2,ss, day 10, steady state, 5 mg once daily, mean ± SD",32.9 ± 6.1 h
same,AUC(0-t),"human, in vivo, 10 mg",118 ± 24.2 ng·h/mL
same,Cmax,"human, in vivo, 10 mg, Cmax, day 1, 10 mg, mean ± SD",9.5 ± 2.1 ng/mL
same,AUC(0-t),"human, in vivo, 20 mg",254 ± 44 ng·h/mL
same,Cmax,"human, in vivo, 20 mg, Cmax, day 1, 20 mg, mean ± SD",21.7 ± 3.7 ng/mL
same,Tmax,"human, in vivo, po, 5 mg",5.1 h
same,Tmax,"human, in vivo, po, 10 mg",5 h
same,Tmax,"human, in vivo, po, 20 mg",4.5 h
same,dose linearity of PKs,"within the 5–20 mg dose range, repeated administration",linear PKs
same,effect on insulin sensitivity,high fat diet-fed mice,improved insulin sensitivity
same,reduction of baseline corrected AUEtotal of glucose compared to placebo,serum glucose; 5 mg,20%
same,reduction of baseline corrected AUEtotal of glucose compared to placebo,serum glucose; 10 mg,25%
same,reduction of baseline corrected AUEtotal of glucose compared to placebo,serum glucose; 20 mg,35%
same,effect on fasting glucose levels,serum glucose; 5-20 mg,did not affect the fasting glucose levels
same,Average AUEtotal (CV%) Glucose,serum glucose; [16],264.1 (36.1) h·mg/dL
same,Average AUEtotal (CV%) Glucose,serum glucose; [17],234.9 (24.9) h·mg/dL
same,Average AUEtotal (CV%) Glucose,serum glucose; [18],229.7 (37.6) h·mg/dL
same,Average AUEtotal (CV%) Glucose,serum glucose; [19],259.4 (25.2) h·mg/dL
same,Average AUEtotal (CV%) Glucose,serum glucose; [20],242.8 (41.6) h·mg/dL
same,Average AUEtotal (CV%) Glucose,serum glucose; [21],209.3 (31.0) h·mg/dL
same,Average AUEtotal (CV%) Glucose,serum glucose; [22],741.3 (14.1) h·mg/dL
same,Average AUEtotal (CV%) Glucose,serum glucose; [23],747.3 (6.0) h·mg/dL
same,Average AUEtotal (CV%) Glucose,serum glucose; [24],747.8 (11.9) h·mg/dL
same,Average AUEtotal (CV%) Glucose,serum glucose; [25],759.6 (9.1) h·mg/dL
same,Average AUEtotal (CV%) Glucose,serum glucose; [26],751.4 (12.6) h·mg/dL
same,Average AUEtotal (CV%) Glucose,serum glucose; [27],727.0 (7.2) h·mg/dL
same,potency for DPP-IV compared to human DPP-I,human DPP-I,"more than 20,000 times"
same,potency for DPP-IV compared to prolidase,prolidase,"more than 20,000 times"
same,induction of CYP3A4,[9],not an inducer
same,effect on onset of diabetes,db/db mice,delayed the onset of diabetes
same,potency for DPP-IV compared to human DPP-IX,human DPP-IX,"6,000 times"
same,inhibition of CYP1A2,CYP1A2,nor an inhibitor
same,Average AUEtotal (CV%) GLP-1,active GLP-1; [16],25.7 (48.3) pM·h
same,Average AUEtotal (CV%) GLP-1,active GLP-1; [17],24.9 (46.0) pM·h
same,Average AUEtotal (CV%) GLP-1,active GLP-1; [18],45.3 (73.8) pM·h
same,Average AUEtotal (CV%) GLP-1,active GLP-1; [19],25.4 (56.7) pM·h
same,Average AUEtotal (CV%) GLP-1,active GLP-1; [20],22.2 (41.0) pM·h
same,Average AUEtotal (CV%) GLP-1,active GLP-1; [21],35.5 (67.3) pM·h
same,Average AUEtotal (CV%) GLP-1,active GLP-1; [22],55.8 (49.6) pM·h
same,Average AUEtotal (CV%) GLP-1,active GLP-1; [23],55.0 (35.9) pM·h
same,Average AUEtotal (CV%) GLP-1,active GLP-1; [24],82.8 (55.3) pM·h
same,Average AUEtotal (CV%) GLP-1,active GLP-1; [25],75.7 (111.2) pM·h
same,Average AUEtotal (CV%) GLP-1,active GLP-1; [26],52.6 (25.0) pM·h
same,Average AUEtotal (CV%) GLP-1,active GLP-1; [27],72.8 (37.0) pM·h
same,potency for DPP-IV compared to human DPP-VIII,human DPP-VIII,"6,000 times"
